# Test results published in patent US20080213183A1, “Free or Liposomal Gemcitabine Alone or in Combination with Free or Liposomal Idarubicin” (priority 2004, published 2008).
# Counter-ions that a name gives are not always drawn. Like-named read-outs stand apart in the source and are kept apart here. Marks after values point to notes of the source that are not given here.
# How the values were obtained:
# [1] = Dose range finding, maximum tolerable dose; type: in vivo; conditions: no significant toxicity for 30 days
# Description: Dose range finding studies of free and liposomal idarubicin and/or gemcitabine were performed in non-tumor bearing female BDF-1 mice. Mice were weighed daily and monitored for signs of stress or toxicity (e.g., lethargy, scruffy coat, ataxia).
# [2] = tested on: non small cell lung cancer; conditions: cited from earlier work
# [3] = tested on: P388 tumors
# Description: For in vivo testing of antitumor activity was evaluated in P388 lymphocytic leukemia model.
# Treatments commenced 24 hours post tumor cell inoculation. Treatment groups consisted of saline (control) and 0.5, 1, 2 and 3 mg/kg doses of free or liposomal idarubicin administered as a single i.v. bolus injection and between 100 to 500 mg/kg gemcitabine and 1 to 5 mg/kg liposomal gemcitabine (selected on the basis of dose range finding studies). Fixed dose ratios for combination treatments were defined on the basis of 0.66 MTD when used as a single agent. […] Median survival and percent weight loss was determined for each treatment.
# All data values are reported as mean±standard deviation (S.D.). A standard one-way analysis of variance (ANOVA) was used to determine statistically significant differences of the means. For multiple comparisons, post-hoc analysis using the Tukey-Kramer test. Survival curves were computed using the Kaplan-Meier method. […] Treatment groups were subsequently analyzed using SPSS statistics software (SPSS Inc., Chicago, Ill., USA) and compared using a two sample log-rank test. P<0.05 was considered significant for all statistics tests.
# [4] = Plasma elimination of free and liposomal gemcitabine; type: in vivo, Balb/c mice; conditions: 33 μmole gemcitabine/kg i.v.
# Description: Pharmacokinetic Analysis: Balb/c mice breeders, 20-22 g, were purchased from Charles River Laboratories (St. Constant, QC, Canada) and bred in-house. Mice were housed in micro-isolator cages and given free access to food and water. All animal studies were conducted according to procedures approved by the University of British Columbia's Animal Care Committee and in accordance with the current guidelines established by the Canadian Council of Animal Care.
# The plasma elimination of idarubicin and gemcitabine containing tracer quantities of 3[H]-gemcitabine was assessed. Mice were injected with 33 μmoles/kg drug administered intravenously into the lateral tail vein of Balb/c mice. At various time points up to 4 hours post drug administration, blood was collected by tail nick (collected in microfuge tubes) or cardiac puncture (collected in liquid EDTA coated tubes), centrifuged at 1000 g to isolate the plasma fraction. The plasma was placed in a separate microfuge tube and vortexed to ensure a homogenous distribution.
# The tail nick procedure for obtaining blood samples was used to minimize the number of mice sacrificed. In this way, three blood samples could be obtained from a single mouse within a 24 hour time interval. In brief, the lateral tail vein of mice was nicked with a small sharp blade. A 25 μl glass pipette, pre-washed with EDTA, was used to withdraw blood. The blood was expelled into a microfuge tube containing 200 μl of 5% (wt/vol) EDTA and thoroughly mixed. Blood/EDTA samples were centrifuged for 10 minutes at 1000 g. The supernatant was transferred to a 1.5 ml microfuge tube. 250 μl Hank's balanced salt solution (HBSS) was added to the pellet, resuspended and centrifuged for 10 minutes at 1000 g. The supernatants were mixed together. Assuming a 48% hematocrit for a 20 gram Balb/c mice, approximately 13 μl plasma was obtained from a 25 μl blood sample. From the recovered plasma samples, aliquots were used to measure drug (and or lipid) concentrations.
# The plasma elimination of liposomal drugs containing doxorubicin, daunorubicin, idarubicin, or gemcitabine samples administered intravenously into the lateral tail vein of Balb/c female mice was assessed. Mice were injected with 33 μmole/kg drug and 165 μmole/kg lipid. For liposomal gemcitabine samples, mice were injected with 33 μmole/kg gemcitabine at an approximate 0.1 drug-to-lipid mole ratio). At various time points post drug administration, blood was collected by tail nick or cardiac puncture. Plasma lipid and 3[H]-gemcitabine were quantified by liquid scintillation counting. Anthracyclines were extracted from plasma with a partitioning assay, followed by fluorescence spectrometer detection.
# The plasma elimination data was modeled using WinNonlin (version 1.5) pharmacokinetic software (Pharsight Corporation, Mountain View, Calif., USA) to calculate pharmacokinetic parameters. […] The mean plasma AUC for a defined time interval was determined from the concentration-time curves and subsequent calculation by the standard trapezoidal rule.
# Liposome mediated increases in gemcitabine blood residence time were also evaluated as follows: Free and liposomal gemcitabine formulations were administered to female Balb/c mice at a dose of 33 μmole gemcitabine/kg (9.9 mg/kg) and 165 μmole total lipid/kg.
# [5] = tested on: P388 lymphocytic leukemia cells; assay: MTT cytotoxicity assay with median effects (Chou and Talalay) analysis; type: cell-based, murine; conditions: for IC50 / IC90: Mus musculus; for IC50: P388, 72 h, read-out: IC50 (concentration required to achieve 50% cell kill); for IC90: P388, read-out: IC90 drug concentration (90% cell kill)
# Description: For in vitro analysis, P388 wild type and doxorubicin resistant (ADR) cells were obtained from the National Cancer Institute tissue repository (Bethesda, Md., USA) and were propagated in vivo. In brief, one vial of frozen ascites was removed from the nitrogen tank and thawed at 37° C. and cells were injected i.p. into female BDF-1 mice (6-8 weeks old, 20-22 g, Charles River Laboratories, St. Constant, QC, Canada). Transfer mice were euthanized and a peritoneal lavage was performed. With a 1 cc syringe with 20 gauge needle, 0.5-1.0 ml of peritoneal fluid was removed and aliquotted into a 15 ml falcon tube containing 5 ml of Hank's Balanced Salt Solution (HBSS, no calcium or magnesium). 0.5 ml aliquot was transferred into another 15 ml conical sterile tube containing 5 ml HBSS. The cells were exposed to plastic culture wear (for adherence of monocytes) and Ficoll-Paque density centrifugation (red blood cell removal). […] For each passage, 2 female BDF-1 mice were injected with 1×10^6 cells in 0.5 ml (2×10^6 cells/ml) of P388 cell suspension intraperitoneally. This was repeated every 6-8 days to a maximum of 20 passages. Cells adequate for animal experiments were used between the 3rd-20th passage. For tissue culture experiments such as MTT cytotoxicity assays, P388 cells were obtained following peritoneal lavage and treatment to remove red blood cells and peritoneal macrophages. […] In order to assess cytotoxicity the MTT (3-(4,5-dimethylthiazol-2-yl)-2,5-diphenyl tetrazolium bromide) assay was utilized. […] The wells in the perimeter of the 96 well microtiter plates contained 0.2 ml sterile water. […] Control wells consisted of media only (200 μl/well), or cells and media (no treatment). There were 6 replicates (per plate) for all control and treatment groups). […] The media was aspirated off and 0.15 ml DMSO was added per well and resuspended on a plate shaker (5-10 min). […] The cytotoxicity upon drug exposure was quantified by expressing the percent cell viability for each treatment relative to untreated control cells (% control). […] This was further analyzed by the median effects principle by Chou and Talalay, cited above. The method by Chou and Talalay was used to distinguish between synergy, antagonism and additive effects of combined drug treatments from in vitro MTT cytotoxicity assays. This method, now provided in a software package (Calculsyn; Biosoft, Cambridge, UK), derives a median effects equation (1) to correlate drug dose and effect. Fixed ratio combinations of idarubicin and gemcitabine were initially selected on the basis of IC50 of each drug. […] Data were reported as mean±S.D. from three separate experiments, performed in triplicate.
# [6] = female, Balb/c, mouse, iv, 33 μmole/kg, plasma
# [7] = at IC90, GEM/IDA 1:1 fixed molar ratio
# [8] = at IC90, GEM/IDA 1:10 fixed molar ratio
structure (smiles),measurement,setting,value
"Nc1ccn([C@@H]2O[C@H](CO)[C@@H](O)C2(F)F)c(=O)n1 [GEM, gemcitabine hydrochloride]",maximum tolerable dose,[1],500 mg/kg
same,overall response rate,"[2]; 800-1250 mg/m2, in combination with cisplatin",50%
same,overall response rate,"[2]; 800-1250 mg/m2, single agent",20%
same,median survival,[2]; in combination with cisplatin,greater than 1 year
same,% ILS,[3]; GEM 100 mg/kg,63%
same,"% Weight Change, day 5",[3]; GEM 100 mg/kg,0.4%
same,Cell Kill,[3]; GEM 100 mg/kg,2.9 LOG10
same,MST,[3]; GEM 100 mg/kg,13 days
same,Survivors,[3]; GEM 100 mg/kg,0/6
same,% ILS,[3]; GEM 200 mg/kg,81%
same,"% Weight Change, day 5",[3]; GEM 200 mg/kg,3.0%
same,Cell Kill,[3]; GEM 200 mg/kg,3.7 LOG10
same,MST,[3]; GEM 200 mg/kg,14.5 days
same,Survivors,[3]; GEM 200 mg/kg,0/6
same,% ILS,[3]; GEM 300 mg/kg,81%
same,"% Weight Change, day 5",[3]; GEM 300 mg/kg,2.3%
same,Cell Kill,[3]; GEM 300 mg/kg,3.7 LOG10
same,MST,[3]; GEM 300 mg/kg,14.5 days
same,Survivors,[3]; GEM 300 mg/kg,0/6
same,"% Weight Change, day 5",[3]; GEM 400 mg/kg,1.8%
same,Cell Kill,[3]; GEM 400 mg/kg,4.0 LOG10
same,MST,[3]; GEM 400 mg/kg,15 days
same,Survivors,[3]; GEM 400 mg/kg,0/6
same,% ILS,"[3]; GEM 400 mg/kg, hydrochloride",88%
same,% ILS,"[3]; GEM 400 mg/kg, listed as free gemcitabine, hydrochloride",87.5%
same,% ILS,[3]; GEM 500 mg/kg,75%
same,"% Weight Change, day 5",[3]; GEM 500 mg/kg,0.0%
same,Cell Kill,[3]; GEM 500 mg/kg,3.4 LOG10
same,MST,[3]; GEM 500 mg/kg,14 days
same,Survivors,[3]; GEM 500 mg/kg,0/10
same,maximum therapeutic dose,"[3]; P388 model, single agent",400 mg/kg
same,AUC0-t,[4]; Tlast 4 hours,0.1^b μmole · h · ml^−1
same,AUMC,[4]; plasma,0.3 μmole · h^2 · ml^−1
same,MRT last,[4]; [6],3.1 h
same,clearance,[4]; [6],0.102 mL/min
same,half-life,[4]; [6],2.1 h
same,IC50,[5],0.26 nM
same,IC90,[5],0.9 nM
same,dose reduction index (DRI),[5]; [7],1.8
same,dose reduction index (DRI),[5]; [8],14
same,fold more cytotoxic than idarubicin,[5]; from IC50,approximately 10 fold
"CC(=O)[C@]1(O)Cc2c(O)c3c(c(O)c2[C@@H](O[C@H]2C[C@H](N)[C@H](O)[C@H](C)O2)C1)C(=O)c1ccccc1C3=O [IDA, idarubicin hydrochloride]",% ILS,[3]; IDA 0.5 mg/kg,13%
same,"% Weight Change, day 5",[3]; IDA 0.5 mg/kg,13.6%
same,Cell Kill,[3]; IDA 0.5 mg/kg,0.6 LOG10
same,MST,[3]; IDA 0.5 mg/kg,9 days
same,Survivors,[3]; IDA 0.5 mg/kg,0/12
same,% ILS,[3]; IDA 1 mg/kg,50%
same,"% Weight Change, day 5",[3]; IDA 1 mg/kg,2.1%
same,Cell Kill,[3]; IDA 1 mg/kg,2.3 LOG10
same,MST,[3]; IDA 1 mg/kg,12 days
same,Survivors,[3]; IDA 1 mg/kg,0/12
same,% ILS,[3]; IDA 2 mg/kg,113%
same,"% Weight Change, day 5",[3]; IDA 2 mg/kg,−1.4%
same,Cell Kill,[3]; IDA 2 mg/kg,5.1 LOG10
same,MST,[3]; IDA 2 mg/kg,17 days
same,Survivors,[3]; IDA 2 mg/kg,1/12
same,IC50,[5],1.8 nM
same,IC90,[5],5.7 nM
same,dose reduction index (DRI),[5]; [7],11.8
same,dose reduction index (DRI),[5]; [8],8.5
same,fold reduction in concentration required,"[5]; at IC90, GEM/IDA 10:1 fixed ratio",180 fold
